Test results as given in ChEMBL document CHEMBL1143191, “The synthesis and biological evaluation of a range of novel functionalized benzopyrans as potential potassium channel activators” (2008).

Assays:
Type in all cases: functional, Thorax
Thoracic [1] = assay: Vasorelaxation activity against phenylephrine-stimulated contraction in rat thoracic tissue assessed as time taken for relaxation at 40 uM
Thoracic [2] = assay: Vasorelaxation activity against phenylephrine-stimulated contraction in rat thoracic tissue at 10 uM; design: scale not given: the % may be the effect or the level left
Thoracic [3] = assay: Vasorelaxation activity against phenylephrine-stimulated contraction in rat thoracic tissue assessed as time taken for relaxation at 10 uM
Thoracic [4] = assay: Vasorelaxation activity against phenylephrine-stimulated contraction in rat thoracic tissue at 20 uM in presence of glibenclamide; design: scale not given: the % may be the effect or the level left
Thoracic [5] = assay: Vasorelaxation activity against phenylephrine-stimulated contraction in rat thoracic tissue at 40 uM; design: scale not given: the % may be the effect or the level left
Thoracic [6] = assay: Vasorelaxation activity against phenylephrine-stimulated contraction in rat thoracic tissue at 1 uM; design: scale not given: the % may be the effect or the level left

Row | Structure (SMILES) | Time (Thoracic [1]) [min] | Activity (Thoracic [2]) [%] | Time (Thoracic [3]) [min] | Activity (Thoracic [4]) [%] | Activity (Thoracic [5]) [%] | Activity (Thoracic [6]) [%]
1 | CC(C)(F)[C@@H]1COc2ccc([N+](=O)[O-])cc2C1C#Cc1ccccc1 (single isomer, unassigned) | 30 | 43 | 40 | 30 | 88 | –
2 | CC1(C)Oc2ccc(C#N)cc2[C@@H](N2CCCC2=O)[C@@H]1O [CROMAKALIM] | – | 72 | – | – | – | 56
3 | CC(C)(F)[C@@H]1COc2ccc(F)cc2C1C#Cc1ccccc1 (single isomer, unassigned) | 33 | 36 | 55 | 44 | 83 | –
4 | CC(C)(F)[C@@H]1COc2c(F)cccc2C1C#Cc1ccccc1 (single isomer, unassigned) | 21 | 28 | 43 | 30 | 92 | –
5 | CC(C)(F)[C@@H]1COc2c(F)cc(F)cc2C1C#Cc1ccccc1 (single isomer, unassigned) | 24 | 20 | 41 | – | 65 | –
